A short description of the test: Inhibition of SREBP2 activation expressed in CHO-K1 cells co-transfected with pSRE-Luc plasmid assessed as inhibition of luciferase expression after 20 hrs by luciferase reporter gene assay. For orientation: In a reporter assay the amount or activity of a reporter protein is the signal.
The term IC50 denotes the concentration needed to halve the response being measured. As to `CCCc1cc(-c2nc(-c3ccc(NCc4ccccc4)cc3)cs2)ccn1`, the half-inhibitory concentration (IC50) amounted to 3 µM.
As for `CCCc1cc(-c2nc(-c3cccs3)cs2)ccn1`, the figure is 14.7 µM; as for `CCCc1cc(-c2nc(-c3ccc(NS(=O)(=O)c4cccs4)cc3)cs2)ccn1`, 0.9 µM; as for `CCCc1cc(-c2nc(-c3cccc(O)c3)cs2)ccn1`, 9.5 µM.
For the compound `CCCc1cc(-c2nc(-c3ccc(NC(=O)OC(C)(C)C)cc3)cs2)ccn1`, the IC50 amounted to 1.9 µM.
Then `CCCc1cc(-c2ccc(-c3ccc(C)cc3)cc2)ccn1`, with above 30 µM.
As for `CCCc1cc(-c2nc(-c3ccc(N)cc3)cs2)ccn1`, the figure is 8.6 µM.
Then `CCCc1cc(-c2nc(-c3ccc(OC)cc3)cs2)ccn1`, with 13 µM; and `CCc1cc(-c2nc(-c3ccc(C)cc3)cs2)ccn1`, with 6.8 µM.
On to `Cc1ccc(-c2csc(-c3ccncc3)n2)cc1`, for which the IC50 was above 30 µM.
As for `CCCc1cc(-c2nc(-c3ccc(OC(=O)c4ccccc4)cc3)cs2)ccn1`, the figure is 7.7 µM; as for `CCCc1cc(-c2nc(-c3ccc(F)cc3)cs2)ccn1`, 12.4 µM; as for `CCCc1cc(-c2nc(-c3cccc(OC)c3)cs2)ccn1`, 10.2 µM.
For the compound `CCCc1cc(-c2nc(-c3ccc(NC(C)C)cc3)cs2)ccn1`, the IC50 came out at 2.8 µM.
Then `CCCc1cc(-c2nc(-c3ccc(Br)cc3)cs2)ccn1`, with 9.8 µM; and `C[C@H](CCCC(C)(C)O)[C@H]1CC[C@H]2[C@@H]3CC=C4C[C@@H](O)CC[C@]4(C)[C@H]3CC[C@]12C` [(1S,2R,5S,10S,11S,14R,15R)-14-[(2R)-6-hydroxy-6-methylheptan-2-yl]-2,15-dimethyltetracyclo[8.7.0.0^{2,7}.0^{11,15}]heptadec-7-en-5-ol], with 0.3 µM.
On to `Cc1ccc(-c2csc(-c3ccccc3)n2)cc1`, for which the 50% inhibitory concentration (IC50) came to 18.6 µM.
Turning to `CCCc1cc(-c2nc(-c3ccc(O)cc3)cs2)ccn1`, the concentration for half-maximal inhibition (IC50) was 9.6 µM.
As for `CCCc1cc(-c2nc(-c3ccccc3OC)cs2)ccn1`, the figure is 3.2 µM; as for `CCCc1cc(-c2nc(-c3ccc(NCC4CC4)cc3)cs2)ccn1`, 4.9 µM; as for `CCCc1cc(-c2nc(-c3ccc(C)cc3)cs2)ccn1` [SMR000221636], 5.6 µM.
Take `CCCc1cc(-c2nc(-c3ccccc3O)cs2)ccn1`: the IC50 turned out to be 14.4 µM.
As for `CCCc1cc(-c2nc(-c3ccccc3)cs2)ccn1`, the figure is 23 µM; as for `CCCc1cc(-c2nc(-c3ccc(NC(C)=O)cc3)cs2)ccn1`, 7.1 µM; as for `CCCc1cc(-c2nc(-c3ccc(NS(=O)(=O)c4ccc(C)cc4)cc3)cs2)ccn1`, 2.3 µM.
Take `CCCc1cc(-c2nc(-c3ccc(Cl)cc3)cs2)ccn1` [SMR000177579]: the half-inhibitory concentration (IC50) came to 10.7 µM.
Then `CCCc1cc(-c2nc(-c3ccc(NS(C)(=O)=O)cc3)cs2)ccn1`, with 0.7 µM.

For the origin of these results see BindingDB's records for doi:10.1021/jm200304y (Kyoto University, 2011).
